Assay results as given in patent US6291470A, “Indole derivatives process for producing the same and medicinal uses of the same” (Toray Industries, Inc., priority 1992, dated 2001).

Columns and labels:
[1] = system: delayed type hypersensitivity; experiment: Mouse Delayed Type Hypersensitivity Reaction Suppression Test-2 (donor spleen cells, subcutaneous administration); format: in vivo; details: C57BL/6 spleen cells; subcutaneous everyday from day of sensitization, totally 8 days; BALB/c
Text: BALB/c mice (male, 7 weeks old) were used, and each group consisted of 4-5 mice. Spleen cells (1×10^7 ) obtained from a donor mouse (C57BL/6) was subcutaneously administered to sensitize the mice. On Day 7 from the sensitization, the spleen cells (5×10^6) of the donor were subcutaneously administered on the right hing leg and spleen cells (5×10^6) obtained from a mouse of the same line as the recipient mice were subcutaneously administered on the left footpad. Twenty four hours later, the thicknesses of the right and left footpads were measured with a dial thickness gage, and the difference in thicknesses of the right and left footpads before the induction of the reaction and 24 hours after the induction of the reaction was employed as the index of the degree of the reaction.
The test compound was dissolved in 10% DMSO-water and was subcutaneously administered everyday from the day of sensitization to the day of induction of the reaction, totally 8 days. In the control group, 10% DMSO-water alone was administered in the same manner. The volume of administration was 10 ml/kg in both study groups and in the control group. Delayed Type Hypersensitivity Reaction=(thickness of right foodpad after induction-thickness of right footpad before induction)-(thickness of […] before induction) [formula]
wherein C means delayed type hypersensitivity reaction of the group to which the test compound was administered and D means the delayed type hypersensitivity reaction of the group to which vehicle was administered.

δ-opioid receptor [2] = molecular target: T1, δ-opioid receptor (Mus musculus, UniProt P32300); experiment: δ-opioid antagonist activity against DPDPE in mouse vas deferens (MVD); details: for Ratio of IC50 Values: DPDPE IC50 with/without 100 nM test compound; for Ratio of IC50 Values / Kb: 20 min; for Kb: against DPDPE, test compound 100 nM, read-out: Ke
T1 construct: from tissue; host or cells: vas deferens of male ddy mice
T1 sequence (P32300 whole entry): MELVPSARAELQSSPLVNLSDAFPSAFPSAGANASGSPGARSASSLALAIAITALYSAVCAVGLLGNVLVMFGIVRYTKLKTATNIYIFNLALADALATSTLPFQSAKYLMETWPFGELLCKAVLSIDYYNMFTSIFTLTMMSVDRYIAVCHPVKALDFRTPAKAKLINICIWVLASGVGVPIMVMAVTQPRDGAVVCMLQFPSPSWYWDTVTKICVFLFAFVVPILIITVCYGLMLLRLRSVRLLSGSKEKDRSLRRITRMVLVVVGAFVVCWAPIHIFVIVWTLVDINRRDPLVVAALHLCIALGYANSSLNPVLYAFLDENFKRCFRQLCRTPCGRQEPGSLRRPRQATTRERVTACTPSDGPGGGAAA
Description: Using mouse vas deferens (MVD), the antagonist activity against DPDPE which is a δ-opioid agonist was checked.
(§1) In this experiment, ddy male mice were used. In a Magnus' tube which is filled with Krebes-Henseleit solution (NaCl […]; KCl 4.7 mM; CaCl2 2.5 mM; KH2 PO4 1.1 mM; NaHCO3 25 mM; glucose 11 mM) kept at 37° C., and into which an atmosphere consisting of 5% carbon dioxide and 95% oxygen was flown, vas deferens taken from the animals was suspended. Electric stimulation was applied through ring-shaped platinum electrodes mounted on the upper and lower portions of the tube at a frequency of 0.1 Hz and 5.0 mS duration. The contraction of the tissue was recorded on polygraph using isometric transducer.
(§2) Then 100 nM of the test compound was added. Twenty minutes later, DPDPE was begun to be added cumulatively. The ratio of IC50 values in the presence and absence of the test compound, Ke value (the molar concentration of the test compound necessary for translating the dose-effect curve to the curve of twice dose) and pA2 value were determined. The pA2 value was determined by the method of Shild et al (Shild, H. O., Br. J. Pharmac. Chamotehr., 4, 277 (1949)). That is, the logarithm of the test compound (log[test compound]) was plotted along the abscissa and the logarithm of the value obtained by subtracting 1 from the ratio of IC50 values was plotted in the presence and absence of the test compound [log(dose ratio-1)] along the ordinate. The pA2 value was determined from the value on the abscissa when the value on the ordinate of the obtained line is 0.

κ-opioid receptor = molecular target: T2, κ-opioid receptor (Cavia porcellus, UniProt P41144); experiment: κ-opioid antagonist activity against U-50488H in guinea pig ileum (GPI); details: 20 min; for Ratio of IC50 Values: U-50488H IC50 with/without 100 nM test compound; for Kb: against U-50488H, test compound 100 nM, read-out: Ke
T2 construct: from tissue; host or cells: ileum longitudinal muscle of male Hartley guinea pigs
T2 sequence (P41144 whole entry): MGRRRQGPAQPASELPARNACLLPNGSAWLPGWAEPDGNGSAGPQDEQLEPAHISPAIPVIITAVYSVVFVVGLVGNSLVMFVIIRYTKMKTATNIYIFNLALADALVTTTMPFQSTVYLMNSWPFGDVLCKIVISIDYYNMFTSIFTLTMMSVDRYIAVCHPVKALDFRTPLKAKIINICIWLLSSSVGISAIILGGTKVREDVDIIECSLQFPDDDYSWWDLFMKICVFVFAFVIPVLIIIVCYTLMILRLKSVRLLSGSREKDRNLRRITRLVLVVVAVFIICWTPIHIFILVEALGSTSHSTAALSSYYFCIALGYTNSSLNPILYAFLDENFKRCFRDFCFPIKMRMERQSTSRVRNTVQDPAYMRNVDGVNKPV
Description: Using guinea pig ileum (GPI), antagonist activities against U-50488H which is a κ-opioid agonist was determined.
Hartley male guinea pigs were used. After killing the guinea pigs by clubbing, ilea were taken. The inside of the ilea was washed with a nutrient liquid and only longitudinal muscles were peeled off. Using the thus obtained longitudinal muscles, the tests were carried out using the same apparatus as used in the experiment employing MVD.
First, U-50488H which is a κ-agonist was cumulatively added and IC50 value was determined. Thereafter, the muscle was well washed with the nutrient liquid. After the contraction reaction became stable, 100 nM of a test compound was added. From 20 minutes after, U-50488H was cumulatively added and the ratio of IC50 values, Ke value and pA2 value were determined in the same manner as in the experiment employing MVD.

[3] = system: Cerebral cortex nerve cells; experiment: Brain cell-protecting action, MTT method; format: cell-based, rat; details: 10 μM; for brain cell-protecting action (in words): MTT; for Ratio of Absorbances: study group / control group, 570 nm, 3 days culture; for brain cell-protecting activity relative to nor-BNI (in words): vs nor-BNI
Description: The brain cell-protecting action was examined by MTT [3-(4,5-dimethylthiazol-2-yl)-2,5-diphenyltetrazolium bromide] method. MTT yields a dark blue formazan compound by mitochondria in living cells. This compound was dissolved in isopropanol and absorbance at 570 nm was measured, thereby measuring the number of living cells.
Cerebral cortex nerve cells of fetal rats of 17 days old were placed in wells of a 96-well plate at a population density of 1×10^5 cells/cm^2. Then 10 μM of a test compound was added and the cells were cultured in 200 μl of mixed medium of D-MEM/F.12 (1:1) for 3 days (37° C., 5%CO2). In a control group, the medium alone was added Then […] of MTT solution in PBS (6mg/ml) was added and the mixture was allowed to react for 3 hours (37° C., 5% CO2). After removing the culture medium, 100 μl of isopropanol was added and the absorbance was measured.
The ratio of the absorbances of the study group and the control group was employed as an index of brain cell-protecting action.

δ-opioid receptor [4] = molecular target: T1, δ-opioid receptor; experiment: Change in δ-antagonist activity against DPDPE with time in mouse vas deferens (MVD); details: for Ratio of IC50 Values / Kb: 173 and NTI at 20 nM, 174 and 5'-NTII at 100 nM; for Kb: read-out: Ke; for change of antagonist activity with time (in words): 15 min to 1 hour; for activity at 1 hour relative to 5'-NTII: vs 5'-NTII
Description: as §1, §2
Using MVD, the antagonist activities of compounds 173 and 174 against DPDPE were determined. The ratio of IC50 values, Ke values and pA2 values at 15 minutes, 30 minutes and 1 hour from the addition of the test compounds were calculated. Since the concentrations of the test compounds are different, the reciprocals of Ke values were plotted in FIGS. 1 and 2.

With `C[S+]([O-])c1cccc2c3c([nH]c12)[C@@H]1Oc2c(O)ccc4c2[C@@]12CCN(CC1CC1)[C@H](C4)[C@]2(O)C3` (single isomer, unassigned) [Compound 591, 17-cyclopropylmethyl-6,7-didehydro-4,5α-epoxy-3,14β-dihydroxy-7'-methylsulfinyl-6,7-2',3'-indolomorphinan] the “% Suppression” value [1] was 16%.

`C[S+]([O-])c1cccc2c3c([nH]c12)[C@@H]1Oc2c(O)ccc4c2[C@@]12CCN(CC1CC1)[C@H](C4)[C@]2(O)C3` (single isomer, unassigned) [Compound 592, 17-cyclopropylmethyl-6,7-didehydro-4,5α-epoxy-3,14β-dihydroxy-7'-methylsulfinyl-6,7-2',3'-indolomorphinan] was tested, and the “% Suppression” value [1] was 20%.

With `O=C(NCC1CC1)c1ccc2[nH]c3c(c2c1)C[C@@]1(O)[C@H]2Cc4ccc(O)c5c4[C@@]1(CCN2CC1CC1)[C@H]3O5` [Compound 7, 17-cyclopropylmethyl-6,7-didehydro-4,5α-epoxy-3,14β-dihydroxy-5'-(N-cyclopropylmethylcarbamoyl)-6,7-2',3'-indolomorphinan] the “Ratio of IC50 Values” (δ-opioid receptor [2]) was 33.2, the Kb (δ-opioid receptor [2]) was 3.11 nM and the “Ratio of IC50 Values” (κ-opioid receptor) was 22.8. The Kb (κ-opioid receptor) was 4.59 nM, the “brain cell-protecting action (in words)” value [3] was “Clear activities” and the “Ratio of Absorbances” value [3] was 5.31.

`CN(C)CCc1ccc2[nH]c3c(c2c1)C[C@@]1(O)[C@H]2Cc4ccc(O)c5c4[C@@]1(CCN2CC1CC1)[C@H]3O5` [Compound 9, 17-cyclopropylmethyl-6,7-didehydro-4,5α-epoxy-3,14-dihydroxy-5'-[2-(N,N-dimethylamino)ethyl]-6,7-2',3'-indolomorphinan] was tested, and the “Ratio of IC50 Values” (δ-opioid receptor [2]) was 25.6, the Kb (δ-opioid receptor [2]) was 4.07 nM and the “Ratio of IC50 Values” (κ-opioid receptor) was 99.0. For the same compound, the Kb (κ-opioid receptor) was 4.07 nM, the “brain cell-protecting action (in words)” value [3] was “Clear activities” and the “Ratio of Absorbances” value [3] was 8.27. The “brain cell-protecting activity relative to nor-BNI (in words)” value [3] was “higher than that of nor-BNI”.

In the case of `CN(C)Cc1ccc2[nH]c3c(c2c1)C[C@@]1(O)[C@H]2Cc4ccc(O)c5c4[C@@]1(CCN2CC1CC1)[C@H]3O5` [Compound 10, 17-cyclopropylmethyl-6,7-didehydro-4,5α-epoxy-3,14β-dihydroxy-5'-(N,N-dimethylamino)methyl-6,7-2',3'-indolomorphinan], the “Ratio of IC50 Values” (δ-opioid receptor [2]) is reported as 11.4, the Kb (δ-opioid receptor [2]) is reported as 9.62 nM and the “Ratio of IC50 Values” (κ-opioid receptor) is reported as 19.4. For the same compound, the Kb (κ-opioid receptor) was 9.67 nM, the “brain cell-protecting action (in words)” value [3] was “Clear activities” and the “Ratio of Absorbances” value [3] was 7.58.

In the case of `O=S(=O)(NCC1CC1)c1ccc2c3c([nH]c2c1)[C@@H]1Oc2c(O)ccc4c2[C@@]12CCN(CC1CC1)[C@H](C4)[C@]2(O)C3` [Compound 45, 17-cyclopropylmethyl-6,7-didehydro-4,5α-epoxy-3,14β-dihydroxy-6'-(N-cyclopropylmethylsulfamoyl)-6,7-2',3'-indolomorphinan], the “Ratio of IC50 Values” (δ-opioid receptor [2]) is reported as 7.44, the Kb (δ-opioid receptor [2]) is reported as 15.5 nM and the “Ratio of IC50 Values” (κ-opioid receptor) is reported as 3.22. It also gave a Kb (κ-opioid receptor) of 45.1 nM.

`O=C(NCC1CC1)c1ccc2c3c([nH]c2c1)[C@@H]1Oc2c(O)ccc4c2[C@@]12CCN(CC1CC1)[C@H](C4)[C@]2(O)C3` [Compound 47, 17-cyclopropylmethyl-6,7-didehydro-4,5α-epoxy-3,14β-dihydroxy-6'-(N-cyclopropylmethylcarbamoyl)-6,7-2',3'-indolomorphinan] was tested, and the “Ratio of IC50 Values” (δ-opioid receptor [2]) was 13.0, the Kb (δ-opioid receptor [2]) was 8.33 nM and the “Ratio of IC50 Values” (κ-opioid receptor) was 3.11. The Kb (κ-opioid receptor) was 47.4 nM.

In the case of `Oc1ccc2c3c1O[C@H]1c4[nH]c5c(N=C=S)cccc5c4C[C@@]4(O)[C@@H](C2)N(CC2CC2)CC[C@]314` [Compound 173, 17-cyclopropylmethyl-6,7-didehydro-4,5α-epoxy-3,14β-dihydroxy-7'-isothiocyanato-6,7-2',3'-indolomorphinan], the “Ratio of IC50 Values” (δ-opioid receptor [4]; 15 min) is reported as 105, the Kb (δ-opioid receptor [4]; 15 min) is reported as 0.19 nM and the “change of antagonist activity with time (in words)” value (δ-opioid receptor [4]) is reported as “increased with time”. For the same compound, the “Ratio of IC50 Values” (δ-opioid receptor [4]; 30 min) was 253, the Kb (δ-opioid receptor [4]; 30 min) was 0.08 nM and the “Ratio of IC50 Values” (δ-opioid receptor [4]; 60 min) was 306. The Kb (δ-opioid receptor [4]; 60 min) was 0.07 nM, the “activity at 1 hour relative to 5'-NTII” value (δ-opioid receptor [4]; 1 hour) was “about 170 times” and the “activity at 1 hour relative to NTI” value (δ-opioid receptor [4]; 1 hour, vs NTI) was “about 3.5 times”. For the same compound, the “activity relative to compound 174 (in words)” value (δ-opioid receptor [4]; vs compound 174) was “inferior to that of compound 174”.

With `Oc1ccc2c3c1O[C@H]1c4[nH]c5cc(N=C=S)ccc5c4C[C@@]4(O)[C@@H](C2)N(CC2CC2)CC[C@]314` [Compound 174, 17-cyclopropylmethyl-6,7-didehydro-4,5α-epoxy-3,14β-dihydroxy-6'-isothiocyanato-6,7-2',3'-indolomorphinan] the “Ratio of IC50 Values” (δ-opioid receptor [4]; 15 min) was 25.7, the Kb (δ-opioid receptor [4]; 15 min) was 4.05 nM and the “change of antagonist activity with time (in words)” value (δ-opioid receptor [4]) was “increased with time”. The “Ratio of IC50 Values” (δ-opioid receptor [4]; 30 min) was 47.6, the Kb (δ-opioid receptor [4]; 30 min) was 2.15 nM and the “Ratio of IC50 Values” (δ-opioid receptor [4]; 60 min) was 58.6. The Kb (δ-opioid receptor [4]; 60 min) was 1.74 nM and the “activity at 1 hour relative to 5'-NTII” value (δ-opioid receptor [4]; 1 hour) was “about 7 times”.

`Oc1ccc2c3c1O[C@H]1c4[nH]c5ccc(CNCC6CC6)cc5c4C[C@@]4(O)[C@@H](C2)N(CC2CC2)CC[C@]314` [Compound 180, 17-cyclopropylmethyl-6,7-didehydro-4,5α-epoxy-3,14β-dihydroxy-5'-(N-cyclopropylmethylamino)methyl-6,7-2',3'-indolomorphinan] was tested, and the “Ratio of IC50 Values” (δ-opioid receptor [2]) was 15.2, the Kb (δ-opioid receptor [2]) was 7.04 nM and the “brain cell-protecting action (in words)” value [3] was “Clear activities”. The “Ratio of Absorbances” value [3] was 8.73 and the “brain cell-protecting activity relative to nor-BNI (in words)” value [3] was “higher than that of nor-BNI”.

In the case of `CS(=O)(=O)c1cccc2c3c([nH]c12)[C@@H]1Oc2c(O)ccc4c2[C@@]12CCN(CC1CC1)[C@H](C4)[C@]2(O)C3` [Compound 190, 17-cyclopropylmethyl-6,7-didehydro-4,5α-epoxy-3,14β-dihydroxy-7'-methylsulfonyl-6,7-2',3'-indolomorphinan], the “δ-antagonist activity relative to NTI (times that of NTI)” value (δ-opioid receptor [2]) is reported as 1.3-1.6 times, the “Ratio of IC50 Values” (δ-opioid receptor [2]) is reported as 698 and the Kb (δ-opioid receptor [2]) is reported as 0.14 nM.
